Data published in ChEMBL document CHEMBL5728495, “Substituted isoindolin-1-ones and 2,3-dihydro-1h-pyrrolo[3,4-c]pyridin-1-ones as HPK1 antagonists” (2021).

Target: Mitogen-activated protein kinase kinase kinase kinase 1 (Homo sapiens, UniProt Q92918)
Experiment: Biochemical Enzyme Assay: HPK1 biochemical enzyme assay: HPK1 enzyme inhibition was measured using a microfluidic mobility shift assay. […] Test compounds were titrated in ten point curves (top final assay concentration 3 μM), and preincubated with enzyme/substrate mix for 30 min prior to initiation of the reaction by addition of ATP (1 mM final concentration) and substrate (1 μM final concentration; Carna Biosciences) diluted in assay buffer supplemented by MgCl2 (final assay concentration of 5 mM). Following 60 min incubation at RT, the reaction was terminated by addition of 60 µl/well termination buffer (Carna Biosciences) and signal determination using aCaliper EZ Reader (Perkin Elmer, UK).

Chain of Mitogen-activated protein kinase kinase kinase kinase 1 (Q92918 whole entry): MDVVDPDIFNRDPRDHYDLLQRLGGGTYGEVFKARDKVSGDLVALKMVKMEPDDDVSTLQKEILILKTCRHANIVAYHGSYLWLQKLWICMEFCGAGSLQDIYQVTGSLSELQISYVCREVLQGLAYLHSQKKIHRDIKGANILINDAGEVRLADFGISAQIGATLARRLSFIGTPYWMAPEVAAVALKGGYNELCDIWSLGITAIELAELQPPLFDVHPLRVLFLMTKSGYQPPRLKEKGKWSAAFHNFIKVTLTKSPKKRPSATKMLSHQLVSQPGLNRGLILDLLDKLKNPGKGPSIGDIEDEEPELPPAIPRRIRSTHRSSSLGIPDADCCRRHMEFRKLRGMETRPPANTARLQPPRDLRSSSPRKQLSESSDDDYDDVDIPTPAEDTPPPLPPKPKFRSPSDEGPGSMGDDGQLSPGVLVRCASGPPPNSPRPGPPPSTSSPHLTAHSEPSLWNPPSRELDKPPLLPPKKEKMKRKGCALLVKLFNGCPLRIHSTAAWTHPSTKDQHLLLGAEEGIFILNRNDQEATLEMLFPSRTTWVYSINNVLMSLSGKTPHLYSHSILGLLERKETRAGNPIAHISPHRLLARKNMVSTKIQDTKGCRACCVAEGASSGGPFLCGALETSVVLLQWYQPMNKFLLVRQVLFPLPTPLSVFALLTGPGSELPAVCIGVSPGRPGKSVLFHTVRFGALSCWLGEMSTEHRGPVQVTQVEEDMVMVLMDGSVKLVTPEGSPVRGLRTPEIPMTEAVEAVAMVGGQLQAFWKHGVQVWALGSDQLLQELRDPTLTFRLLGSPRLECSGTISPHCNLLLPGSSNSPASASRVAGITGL

Compound	IC50 [nM]
C[C@@H]1CCn2ncc(-c3ccc(Nc4ccc(N5CCN(C)CC5)cn4)c4c3CNC4=O)c2C1	< 100
O=C1NCc2c(-c3cnc4ccccn34)ncc(Nc3ccc(N4CC[C@@H](F)[C@H](O)C4)cn3)c21	< 100
Cc1cc(Nc2ccc(N3CCC(O)CC3)cn2)c2c(c1-c1cccc3c1ccn3C)CNC2=O	< 100
CN(C)C[C@H]1CN(c2ccc(Nc3ccc(-c4cnc5cc(Cl)ccn45)c4c3C(=O)NC4)nc2)CCO1	< 100
CCN(C)Cc1nc(Nc2ccc(-c3cnc4cc(F)ccn34)c3c2C(=O)NC3)ccc1[C@H]1CCOC1	< 100
Cc1ccn2c(-c3ccc(Nc4ccc(N5CCC[C@@](O)(CN(C)C)C5)cn4)c4c3CNC4=O)cnc2c1F	< 100
CN(C)C1(c2ccc(Nc3ccc(-c4cnc5cc(F)ccn45)c4c3C(=O)NC4)nc2)CCOCC1	< 100
Cn1ccc2c(-c3ccc(Nc4ccc(N5CCO[C@@H](C(C)(C)O)C5)cn4)c4c3CNC4=O)ncnc21	< 100
CN(C)C[C@@H]1CN(c2ccc(Nc3cnc(-c4ccnc5c4ccn5C)c4c3C(=O)NC4)nc2)CCO1	< 100
COCC1(O)CCN(c2ccc(Nc3ccc(-c4cnc5cc(F)ccn45)c4c3C(=O)NC4)nc2)CC1	< 100
O=C1NCc2c(-c3cnc4ccccn34)ncc(Nc3ccc(C4(O)CCOCC4)cn3)c21	< 100
CN(C)CCc1nc(Nc2ccc(-c3cnc4cc(F)ccn34)c3c2C(=O)NC3)ccc1[C@@H]1CCOC1	< 100
Cn1ccc2c(-c3ncc(Nc4ccc(N5CCC(C)(O)CC5)cn4)c4c3CNC4=O)ccnc21	< 100
CN1CC[C@H](c2ccc(Nc3cnc(-c4ccnc5c4ccn5C)c4c3C(=O)NC4)nc2)CC1=O	< 100
CN(C)C[C@H]1CN(c2ccc(Nc3cnc(-c4ccnc5c4ccn5C)c4c3C(=O)NC4)nc2)CCO1	< 100
Cn1ccc2c(-c3ncc(Nc4ccc(N5CCOCC5)cn4)c4c3CNC4=O)ccnc21	< 100
Cc1ccn2c(-c3ccc(Nc4ccc(N5CCC[C@](O)(CN(C)C)C5)cn4)c4c3CNC4=O)cnc2c1F	< 100

The remaining lines, values ahead:

IC50 [nM]	Compound
< 100	CN1CC[C@@H](c2ccc(Nc3cnc(-c4ccnc5c4ccn5C)c4c3C(=O)NC4)nc2)CC1=O
< 100	CN(C)CCc1nc(Nc2ccc(-c3cnc4cc(F)ccn34)c3c2C(=O)NC3)ccc1[C@H]1CCOC1
< 100	CC(C)(NC1CC1)C1CN(c2ccc(Nc3ccc(-c4cnc5cc(F)ccn45)c4c3C(=O)NC4)nc2)CCO1 (stereo unspecified)
< 100	O=C1NCc2c(-c3cnc4cc(F)ccn34)ccc(Nc3ccc([C@]4(O)CCOC4)cn3)c21
< 100	O=C1NCc2c(-c3cnc4cc(C(F)F)ccn34)ccc(Nc3ccc([C@]4(O)CCOC4)cn3)c21
< 100	COC1(CO)CCN(c2ccc(Nc3ccc(-c4cnc5cc(F)ccn45)c4c3C(=O)NC4)nc2)CC1
< 100	COc1cc(Nc2ccc(-c3ccnc4c3ccn4C)c3c2C(=O)NC3)ncc1N1CCC(O)CC1
< 100	Cn1ccc2c(-c3ccc(Nc4ccc(N5CCO[C@H](C(C)(C)O)C5)cn4)c4c3CNC4=O)ncnc21
< 100	O=C1NCc2c(-c3cnc4cc(F)ccn34)ccc(Nc3ccc([C@@]4(O)CCOC4)cn3)c21
